{"source": "patent US5268465A", "about": "“Purification and molecular cloning of nitric oxide synthase” (The Johns Hopkins University, priority 1991, dated 1993)", "key": {"[1]": {"biological_target": "T1, NO synthase (Rattus norvegicus, UniProt P0DP29+P29476)", "T1 sequence (P29476 whole entry, one chain of several)": "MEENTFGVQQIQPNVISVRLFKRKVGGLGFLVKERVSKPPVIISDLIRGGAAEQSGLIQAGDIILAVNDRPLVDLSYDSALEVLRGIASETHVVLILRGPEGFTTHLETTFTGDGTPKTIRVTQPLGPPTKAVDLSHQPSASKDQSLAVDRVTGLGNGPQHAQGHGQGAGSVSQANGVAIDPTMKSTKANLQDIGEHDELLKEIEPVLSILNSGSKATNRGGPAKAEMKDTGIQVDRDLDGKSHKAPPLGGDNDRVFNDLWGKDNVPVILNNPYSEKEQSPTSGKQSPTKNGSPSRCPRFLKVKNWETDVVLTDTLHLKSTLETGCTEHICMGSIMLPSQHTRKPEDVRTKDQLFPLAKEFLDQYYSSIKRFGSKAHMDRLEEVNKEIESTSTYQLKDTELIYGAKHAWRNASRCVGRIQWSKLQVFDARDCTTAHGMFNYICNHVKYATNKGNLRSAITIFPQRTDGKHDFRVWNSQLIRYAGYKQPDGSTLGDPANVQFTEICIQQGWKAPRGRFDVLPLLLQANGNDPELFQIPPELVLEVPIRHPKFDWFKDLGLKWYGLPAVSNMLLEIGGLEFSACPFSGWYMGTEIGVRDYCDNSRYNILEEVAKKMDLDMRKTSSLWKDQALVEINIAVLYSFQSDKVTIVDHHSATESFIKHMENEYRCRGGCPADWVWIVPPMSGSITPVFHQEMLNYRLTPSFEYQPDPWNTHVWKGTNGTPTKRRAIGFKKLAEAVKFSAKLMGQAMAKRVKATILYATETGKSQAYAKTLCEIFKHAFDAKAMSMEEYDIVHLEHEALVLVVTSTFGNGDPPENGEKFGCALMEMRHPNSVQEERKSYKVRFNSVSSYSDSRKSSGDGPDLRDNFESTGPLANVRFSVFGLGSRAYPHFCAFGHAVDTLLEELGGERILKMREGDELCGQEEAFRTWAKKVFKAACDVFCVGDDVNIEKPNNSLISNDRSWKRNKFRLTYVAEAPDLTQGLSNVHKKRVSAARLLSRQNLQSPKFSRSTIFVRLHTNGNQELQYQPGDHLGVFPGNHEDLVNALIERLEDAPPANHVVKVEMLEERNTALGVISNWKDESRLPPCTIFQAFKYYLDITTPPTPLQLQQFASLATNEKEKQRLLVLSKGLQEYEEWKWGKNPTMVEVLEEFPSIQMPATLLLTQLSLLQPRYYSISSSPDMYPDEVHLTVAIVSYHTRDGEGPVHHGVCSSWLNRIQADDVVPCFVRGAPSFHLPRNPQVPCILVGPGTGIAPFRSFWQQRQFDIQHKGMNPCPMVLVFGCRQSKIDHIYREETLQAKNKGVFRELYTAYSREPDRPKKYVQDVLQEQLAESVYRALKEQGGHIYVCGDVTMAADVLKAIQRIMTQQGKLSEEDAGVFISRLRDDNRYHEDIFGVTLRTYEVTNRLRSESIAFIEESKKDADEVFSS", "experiment": "NO synthase activity, conversion of [3H]arginine to [3H]citrulline, purified enzyme", "format": "biochemical", "details": "for EC50: read-out: EC50 for enhancement/stimulation of enzyme activity; for IC50: read-out: Calmodulin antagonists, IC50"}, "[2]": {"biological_target": "T2, NO synthase activity in crude brain supernatant preparations (Rattus norvegicus, UniProt P29476)", "T2 construct": "not recombinant", "experiment": "NO synthase activity, conversion of [3H]arginine to [3H]citrulline, crude cerebellar/brain supernatant preparations", "format": "biochemical", "method": "(§1) This example describes the method by which NOS activity was assayed. […] After incubation for 5 min at 22° C., assays were terminated with 2 ml of 20 mM Hepes, pH 5.5/2 mM EDTA, and were applied to 1-ml columns of Dowex A[…]-8 (Na^+ form), which were eluted with 2 ml of water. [^3 H]Citrulline was quantified by liquid scintillation spectroscopy of the 4-ml flow-through."}, "[3]": {"biological_target": "T1, NO synthase", "experiment": "Effects of varying calcium, calmodulin and NADPH on NO synthase activity", "format": "biochemical", "method": "After incubation for 5 min at 22° C., assays were terminated with 2 ml of 20 mM Hepes, pH 5.5/2 mM EDTA, and were applied to 1-ml columns of Dowex A[…]-8 (Na^+ form), which were eluted with 2 ml of water. [^3 H]Citrulline was quantified by liquid scintillation spectroscopy of the 4-ml flow-through."}, "[4]": {"biological_target": "NO synthase activity in crude brain supernatant preparations (Rattus norvegicus, UniProt P0DP29)", "experiment": "NO synthase activity, conversion of [3H]arginine to [3H]citrulline, crude cerebellar/brain supernatant preparations", "format": "biochemical", "details": "crude brain supernatant preparations; read-out: IC50, inhibition of NO synthase activity", "method": "as §1"}, "[5]": {"biological_target": "T3, NO synthase (Rattus norvegicus, UniProt P29476)", "T3 construct": "Eighteen rat cerebella were homogenized; from tissue; host or cells: rat cerebella (supernatant, DEAE eluate, 2',5'-ADP agarose eluate)", "experiment": "Storage stability of NO synthase activity", "format": "physicochemical", "method": "After incubation for 5 min at 22° C., assays were terminated with 2 ml of 20 mM Hepes, pH 5.5/2 mM EDTA, and were applied to 1-ml columns of Dowex AG502X-8 (Na^+ form), which were eluted with 2 ml of water. [^3 H]Citrulline was quantified by liquid scintillation spectroscopy of the 4-ml flow-through.\nThe purified enzyme is unstable. When stored at 0° C., 50% of the enzyme activity is lost in 2 hr, whereas the crude supernatant preparation loses 50% activity at 0° C. in 2 days. Stability is enhanced by storing the enzyme in bovine serum albumin (1 mg/ml)/20% (vol/vol) glycerol at -70° C. When stored in this way, the enzyme loses<50%activity in 7 days."}, "[6]": {"biological_target": "T3, NO synthase", "experiment": "Restoration of enzyme activity of DEAE eluate fractions", "format": "biochemical", "method": "Eighteen rat cerebella were homogenized in 100 ml of ice-cold buffer A [50 mM Tris-HCl, pH 7.4/1 mM EDTA/antipain (10 mg/liter)/leupeptin (10 mg/liter)/soybean trypsin inhibitor (10 mg/liter)/pepstatin (10 mg/liter)/chymostatin (10 mg/liter)/phenylmethylsulfonyl fluoride (100 mg/liter)], and all subsequent procedures were carried out at 4° C. The homogenate was centrifuged at 20,000×g for 15 min, and the supernatant was loaded at 2 ml/min onto a 20-ml column of diethylminoethyl (DEAE) equilibrated with buffer A. The column was washed with 50 ml of buffer A and eluted with a 100-ml linear gradient of 0-400 mM NaCl in buffer A. Fractions (2.5 ml) were assayed for enzyme activity.\nIn our preliminary efforts to purify NO synthase, we observed that enzymatic activity adheres to a DEAE column and can be eluted by 1M NaCl. […] Since NO formation requires Ca^2+, we speculated that calmodulin might be involved. […] NO synthase activity elutes in one sharp, major peak followed by a smaller peak of activity, which is observed reproducibly in multiple experiments."}, "[7]": {"biological_target": "T3, NO synthase", "experiment": "Specific activity of fractions during purification of NO synthase", "format": "biochemical", "details": "typical purification, repeated five times", "protocol": "After a 10-min incubation, the suspension was poured into a fritted column, which was washed with 50 ml of buffer B with 0.5M NaCl and then with 20 ml of buffer B alone.\nEnzyme was purified and fractions were assayed as described."}}, "data": [{"compound": "[Ca+2]", "note": "[Ca^2+, calcium]", "values": [{"measurement": "EC50", "setting": "[1]", "value": 0.2, "unit": "µM"}, {"measurement": "EC50 compared with crude preparations", "setting": "[2]; crude preparations", "value": "the same in the pure and crude preparations"}, {"measurement": "Concentration of maximal enhancement of activity", "setting": "[3]", "value": 1, "unit": "µM"}, {"measurement": "Stimulation in the absence of NADPH", "setting": "[3]; absence of NADPH", "value": "fails to stimulate NO synthase activity"}, {"measurement": "Activity at high Ca2+", "setting": "[3]; concentrations exceeding 100 μM Ca2+", "value": "some reduction in activity"}]}, {"compound": "NCCCCCCNS(=O)(=O)c1cccc2ccccc12", "note": "[W-5]", "values": [{"measurement": "IC50", "setting": "[1]", "value": 25, "unit": "µM"}, {"measurement": "IC50", "setting": "[4]", "value": 50, "unit": "µM"}]}, {"compound": "NCCCCNS(=O)(=O)c1ccc2c(Cl)cccc2c1", "note": "[W-13]", "values": [{"measurement": "IC50", "setting": "[1]", "value": 70, "unit": "µM"}, {"measurement": "IC50", "setting": "[4]", "value": 25, "unit": "µM"}]}, {"compound": "Calmodulin", "values": [{"measurement": "EC50", "setting": "[1]", "value": 0.01, "unit": "µM"}, {"measurement": "Influence of added calmodulin on enzyme activity", "setting": "[2]; crude cerebellar supernatant preparations, calmodulin 1 μM", "value": "no influence on enzyme activity"}, {"measurement": "Effect on stability of the enzyme", "setting": "[5]; presence of calmodulin", "value": "Stability is also enhanced"}, {"measurement": "Effect of addition to DEAE eluate fractions on enzyme activity", "setting": "[6]", "value": "restores enzyme activity"}, {"measurement": "Stimulation of NO synthase activity", "setting": "[3]; FIG. 2A", "value": "extremely potent stimulator of NO synthase activity"}]}, {"compound": "NO synthase: calmodulin-dependent nitric oxide synthase purified to homogeneity from rat cerebella by DEAE and 2',5'-ADP agarose chromatography", "values": [{"measurement": "Vmax", "setting": "[1]; Table 2", "value": "0.96 μmol per min per mg of protein"}, {"measurement": "Enzyme activity lost on storage", "setting": "[5]; bovine serum albumin (1 mg/ml)/20% (vol/vol) glycerol at -70° C., 7 days", "value": "< 50", "unit": "%"}, {"measurement": "Time to loss of 50% of the enzyme activity", "setting": "[5]; stored at 0° C.", "value": 2, "unit": "h"}, {"measurement": "Specific activity", "setting": "[7]", "value": 960, "unit": "nmol/mg/min"}]}]}
